Laboratory results from paper PMC8086025, “A benzopyran with antiarrhythmic activity is an inhibitor of Kir3.1-containing potassium channels” (The Journal of Biological Chemistry, 2021).
“And” between values parts separate entries of the source, which are not always exact repeats. Identical values can stand only once. “Also recorded” adds a separate entry of the source.

What was measured:
Kir3.1/4 channel = biological target: T1, Kir3.1/4 channel (Homo sapiens, UniProt P48544+P48549); test: TEVC in Xenopus oocytes, Kir3.1/4; type: cell-based; design: expressed in transfected cells; host or cells: Xenopus laevis oocytes (cRNA injection); settings: 1 μM, TEVC
T1 sequence (P48549 1-501): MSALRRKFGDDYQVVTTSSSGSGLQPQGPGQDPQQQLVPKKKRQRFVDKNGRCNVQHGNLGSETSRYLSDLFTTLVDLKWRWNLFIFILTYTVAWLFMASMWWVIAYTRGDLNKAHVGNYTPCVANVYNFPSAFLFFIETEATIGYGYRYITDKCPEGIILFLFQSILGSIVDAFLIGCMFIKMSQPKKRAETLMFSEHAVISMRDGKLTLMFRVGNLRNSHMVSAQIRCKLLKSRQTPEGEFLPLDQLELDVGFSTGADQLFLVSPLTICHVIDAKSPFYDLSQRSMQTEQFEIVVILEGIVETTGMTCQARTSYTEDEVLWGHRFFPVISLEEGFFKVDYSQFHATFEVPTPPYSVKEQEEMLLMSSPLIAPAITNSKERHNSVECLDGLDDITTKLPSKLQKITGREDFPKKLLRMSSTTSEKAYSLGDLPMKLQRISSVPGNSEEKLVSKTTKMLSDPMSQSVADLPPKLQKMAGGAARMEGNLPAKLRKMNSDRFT
T1 sequence (P48544 1-419): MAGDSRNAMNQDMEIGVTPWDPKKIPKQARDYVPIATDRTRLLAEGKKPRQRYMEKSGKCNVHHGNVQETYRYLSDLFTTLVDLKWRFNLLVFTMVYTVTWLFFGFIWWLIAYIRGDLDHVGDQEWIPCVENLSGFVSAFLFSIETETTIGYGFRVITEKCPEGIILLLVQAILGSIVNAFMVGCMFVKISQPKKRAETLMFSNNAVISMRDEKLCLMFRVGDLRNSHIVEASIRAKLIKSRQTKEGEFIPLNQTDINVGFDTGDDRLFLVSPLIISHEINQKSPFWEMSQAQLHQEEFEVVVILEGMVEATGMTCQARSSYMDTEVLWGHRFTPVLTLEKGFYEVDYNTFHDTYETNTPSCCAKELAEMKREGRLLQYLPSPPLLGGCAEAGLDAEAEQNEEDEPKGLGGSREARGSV
Protocol: (§1) X. laevis oocytes were isolated and microinjected as previously described ([6]). Human Kir3.1, mouse Kir3.2, and human Kir3.4 DNA constructs were used for electrophysiology experiments. All cRNA constructs were injected in the amount of 2 ng per oocyte. Injected oocytes were incubated for 2 to 3 days at 18 °C to allow for expression. Whole-cell oocyte currents were then measured using a GeneClamp 500 amplifier (Axon Instruments). Microelectrodes had resistances of 0.5 to 1 megohm using a 3M KCl solution in 1.4% agarose. Oocytes were perfused with a low K^+ (LK) solution ND96 (2 mM KCl, 96 mM NaCl, 1 mM MgCl2, 1.8 mM CaCl2, 5 mM HEPES-Na) to establish a baseline for the recordings. Basal current was measured in a high potassium (HK) solution ND96K (96 mM KCl, 10 mM HEPES-K, 1 mM MgCl2, 1.8 mM CaCl2). To block the current, the oocyte chamber was perfused with 4 mM BaCl2 in ND96K. Only the Barium-sensitive current was used for statistical analysis. To measure the inhibitory activity of the channels, 1 μM BP-G1 in ND96K (HK) was used. Typically, oocytes were held at 0 mV (EK) and the current was monitored constantly using a ramp protocol with a command potential from −80 to +80 mV. Current amplitude was measured at the end of a 1 s sweep. All currents were analyzed when they reached steady state. Error bars in the figures represent SD (N > 4).

Ca = test: Radioligand binding; settings: listed as Benzopyran-G1 (SR)
[1] = test system: GABA Cl- channel (GABA-gated); test: Radioligand binding, [35S]TBPS; design: species or system rat; settings: 10 µM; listed as Benzopyran-G1 (SR)
5-HT2A = biological target: T2, 5-HT2A (Homo sapiens, UniProt P28223); test: Radioligand binding, [3H]ketanserin; settings: read-out: % Specific Binding at 10 µM
T2 construct: expressed in transfected cells; host or cells: HEK-293 cells

Histamine H2 = biological target: T3, Histamine H2 (Homo sapiens, UniProt P25021); test: Radioligand binding, [125I]APT; settings: read-out: % Specific Binding at 10 µM
T3 construct: expressed in transfected cells; host or cells: CHO cells

Opioid Kappa = biological target: T4, Opioid Kappa (Rattus norvegicus, UniProt P34975); test: Radioligand binding, [3H]U 69593; settings: read-out: % Specific Binding at 10 µM
T4 construct: expressed in transfected cells; host or cells: CHO cells

Kir3.1/2 channel = biological target: T5, Kir3.1/2 channel (UniProt P48542+P48549); test: TEVC in Xenopus oocytes, Kir3.1/2; type: cell-based, human Kir3.1, mouse Kir3.2; design: expressed in transfected cells; settings: TEVC
T5 sequence (P48549 1-501): T1 sequence (P48549 1-501)
T5 sequence (P48542 1-425): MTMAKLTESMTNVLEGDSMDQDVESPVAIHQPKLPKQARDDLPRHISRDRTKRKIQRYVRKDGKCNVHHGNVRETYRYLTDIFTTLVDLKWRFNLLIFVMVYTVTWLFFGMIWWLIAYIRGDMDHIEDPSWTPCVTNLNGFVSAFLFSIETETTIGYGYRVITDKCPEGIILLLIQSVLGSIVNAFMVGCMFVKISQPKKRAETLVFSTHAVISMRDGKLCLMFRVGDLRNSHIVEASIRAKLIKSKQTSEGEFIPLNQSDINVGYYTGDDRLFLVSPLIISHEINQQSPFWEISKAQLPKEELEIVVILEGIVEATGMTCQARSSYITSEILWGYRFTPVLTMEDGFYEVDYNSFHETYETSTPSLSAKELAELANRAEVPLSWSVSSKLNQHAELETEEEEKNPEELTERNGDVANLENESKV
Protocol: as §1

[2] = biological target: T6, Non-steroid nuclear receptors PPARγ (Homo sapiens, UniProt P37231); test: Radioligand binding, [3H]rosiglitazone; settings: read-out: % Specific Binding at 10 µM
T6 construct: purchased; host or cells: E. coli

Neurokinin NK1 = biological target: T7, Neurokinin NK1 (Homo sapiens, UniProt P25103); test: Radioligand binding, [125I]-Substance P LYS3, U373MG uppsala; settings: read-out: % Specific Binding at 10 µM
T7 construct: endogenous in cells; host or cells: U373MG uppsala

Nav = test: Radioligand binding, rat cerebral cortex
IKACh = test: In vivo ECG, carbachol-induced heart rate slowing in anesthetized mice
Protocol: We tested the in vivo effects of BP-G1 versus those of BP-G1(SR) on heart rate in anesthetized adult mice (Fig. 8). ECG was continuously recorded. Panel A is the ECG showing that after carbachol (300 μl of 200 μM) was administered, i.p. (red mark), the heart decelerated, with a visible RR prolongation. About 10 min after carbachol injection, BP-G1 was delivered via the jugular vein (40 μl of 240 μM) (green mark). Within 5 min, there was a reversal of carbachol’s effects on the heart rate. Panel B is a control mouse showing heart rate slowing after carbachol administration (red mark).
Mice were anesthetized (1.5% isofluorane), and a 1.2 French octapolar catheter (Millar) with a drug delivery port was placed transvenously, through the jugular vein, into the right atrium. Continuous ECG was recorded using the Animal Bio Amp and PowerLab 4/35 Advanced Instruments apparatus. […] Saline control at the same volume was performed. Results are averages ±SD.

Dopamine transporter = biological target: T8, Dopamine transporter (Homo sapiens, UniProt Q01959); test: Radioligand binding, [3H]BTCP; settings: 10 µM; read-out: % Specific Binding at 10 µM
T8 construct: expressed in transfected cells; host or cells: CHO cells
T8 sequence (Q01959 whole entry): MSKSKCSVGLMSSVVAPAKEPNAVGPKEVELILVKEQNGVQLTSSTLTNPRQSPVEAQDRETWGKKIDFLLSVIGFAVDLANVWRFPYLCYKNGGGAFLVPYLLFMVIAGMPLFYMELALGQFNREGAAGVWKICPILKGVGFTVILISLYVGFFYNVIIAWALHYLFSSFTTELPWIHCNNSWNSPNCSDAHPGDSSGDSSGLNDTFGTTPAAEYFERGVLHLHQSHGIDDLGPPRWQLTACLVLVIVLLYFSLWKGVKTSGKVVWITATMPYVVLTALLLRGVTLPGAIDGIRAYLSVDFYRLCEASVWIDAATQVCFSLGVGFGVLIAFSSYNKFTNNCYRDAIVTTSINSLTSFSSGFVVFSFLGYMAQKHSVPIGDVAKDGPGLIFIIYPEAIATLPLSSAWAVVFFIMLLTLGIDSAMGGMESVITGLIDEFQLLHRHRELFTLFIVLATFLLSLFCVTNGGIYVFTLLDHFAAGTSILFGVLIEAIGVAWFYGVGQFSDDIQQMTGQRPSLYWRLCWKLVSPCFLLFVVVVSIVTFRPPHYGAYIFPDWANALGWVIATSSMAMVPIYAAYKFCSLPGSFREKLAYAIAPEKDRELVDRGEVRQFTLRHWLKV

T6 sequence (P37231 whole entry): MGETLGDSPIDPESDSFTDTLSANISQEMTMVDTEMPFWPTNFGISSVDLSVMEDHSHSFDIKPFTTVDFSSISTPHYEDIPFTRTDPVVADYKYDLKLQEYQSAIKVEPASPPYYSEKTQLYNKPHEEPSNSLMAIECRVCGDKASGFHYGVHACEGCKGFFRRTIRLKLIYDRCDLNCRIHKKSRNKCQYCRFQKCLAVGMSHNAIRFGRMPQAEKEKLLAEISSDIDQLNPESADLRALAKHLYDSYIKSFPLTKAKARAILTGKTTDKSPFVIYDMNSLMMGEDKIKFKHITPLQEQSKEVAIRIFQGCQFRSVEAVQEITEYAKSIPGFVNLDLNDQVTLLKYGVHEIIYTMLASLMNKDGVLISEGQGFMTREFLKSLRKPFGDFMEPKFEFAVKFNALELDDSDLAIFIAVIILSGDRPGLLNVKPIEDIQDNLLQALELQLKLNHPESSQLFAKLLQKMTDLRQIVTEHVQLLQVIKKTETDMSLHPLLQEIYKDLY
T2 sequence (P28223 whole entry): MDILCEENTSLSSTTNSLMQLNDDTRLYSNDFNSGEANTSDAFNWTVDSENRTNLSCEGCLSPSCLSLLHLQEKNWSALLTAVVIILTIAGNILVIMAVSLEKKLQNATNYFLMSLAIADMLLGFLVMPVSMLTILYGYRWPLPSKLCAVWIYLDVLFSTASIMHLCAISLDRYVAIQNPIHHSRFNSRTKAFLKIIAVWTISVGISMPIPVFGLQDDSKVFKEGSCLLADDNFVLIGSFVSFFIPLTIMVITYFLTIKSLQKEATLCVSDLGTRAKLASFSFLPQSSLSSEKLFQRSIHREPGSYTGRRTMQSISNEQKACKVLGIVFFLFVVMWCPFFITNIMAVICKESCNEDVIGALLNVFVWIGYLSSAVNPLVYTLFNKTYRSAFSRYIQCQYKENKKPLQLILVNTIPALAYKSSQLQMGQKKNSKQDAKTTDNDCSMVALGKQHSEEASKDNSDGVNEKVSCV
T3 sequence (P25021 whole entry): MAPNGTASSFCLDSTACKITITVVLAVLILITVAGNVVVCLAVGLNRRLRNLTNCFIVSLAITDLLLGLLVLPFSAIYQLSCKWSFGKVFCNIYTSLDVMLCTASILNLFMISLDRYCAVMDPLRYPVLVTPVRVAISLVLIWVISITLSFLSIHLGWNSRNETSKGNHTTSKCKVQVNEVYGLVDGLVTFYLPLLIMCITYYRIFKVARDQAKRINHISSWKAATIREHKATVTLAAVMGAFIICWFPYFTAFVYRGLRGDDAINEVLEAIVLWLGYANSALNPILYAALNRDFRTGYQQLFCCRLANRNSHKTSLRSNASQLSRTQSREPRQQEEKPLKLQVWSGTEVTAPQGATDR
T4 sequence (P34975 whole entry): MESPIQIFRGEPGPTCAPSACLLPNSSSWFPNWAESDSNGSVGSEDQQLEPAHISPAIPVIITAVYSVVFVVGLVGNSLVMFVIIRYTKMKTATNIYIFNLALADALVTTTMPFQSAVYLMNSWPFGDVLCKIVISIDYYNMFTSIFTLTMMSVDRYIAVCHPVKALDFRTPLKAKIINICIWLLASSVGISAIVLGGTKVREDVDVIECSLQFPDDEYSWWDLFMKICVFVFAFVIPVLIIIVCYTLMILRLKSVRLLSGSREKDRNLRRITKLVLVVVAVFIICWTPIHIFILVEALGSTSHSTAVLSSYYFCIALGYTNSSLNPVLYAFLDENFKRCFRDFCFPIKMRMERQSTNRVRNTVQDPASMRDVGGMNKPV
T7 sequence (P25103 whole entry): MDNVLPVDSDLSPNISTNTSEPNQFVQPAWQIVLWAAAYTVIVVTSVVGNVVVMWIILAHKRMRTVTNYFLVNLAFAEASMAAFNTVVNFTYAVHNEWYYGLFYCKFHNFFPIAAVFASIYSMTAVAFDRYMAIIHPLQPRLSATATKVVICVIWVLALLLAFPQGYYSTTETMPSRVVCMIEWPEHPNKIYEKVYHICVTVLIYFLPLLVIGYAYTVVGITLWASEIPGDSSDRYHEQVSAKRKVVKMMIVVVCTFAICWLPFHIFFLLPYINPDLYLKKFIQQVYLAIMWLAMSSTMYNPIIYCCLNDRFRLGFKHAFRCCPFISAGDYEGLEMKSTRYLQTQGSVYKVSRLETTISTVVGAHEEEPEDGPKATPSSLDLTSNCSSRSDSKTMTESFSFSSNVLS

Cc1cc(CO)nc2cc3c(cc12)OC(C)(C)[C@@H](O)[C@@H]3NCCc1ccccc1 [BP-G1(SR), (3S,4R)-7-(hydroxymethyl)-2,2,9-trimethyl-4-(2-phenylethylamino)-3,4-dihydropyrano[2,3-g]quinolin-3-ol]
inhibitory activity on Kir3.1/4 channel (Kir3.1/4 channel): nominally inhibits; also recorded: unable to effectively inhibit
% Specific Binding at 10 µM (Ca): 28.633% and < 50%
% Specific Binding at 10 µM [1]: < 50%
inhibition at 10 µM (5-HT2A): 46.4%
inhibition at 10 µM (Histamine H2): 83.6%
inhibition at 10 µM (Opioid Kappa): 31.3%
inhibitory activity on Kir3.1/2 channel (Kir3.1/2 channel): nominally inhibits; also recorded: unable to effectively inhibit
inhibition at 10 µM [2]: 58.3%
inhibition at 10 µM (Neurokinin NK1): 64.2%
% Specific Binding at 10 µM (Nav): 68.800%
RR interval 5 min after compound, given about 10 min after carbachol (IKACh; 40 μl of 240 μM via jugular vein, anesthetized mice, mean ± SD, N = 3): 551.6 ± 185 ms
heart rate recovery after carbachol (IKACh; 40 μl via jugular vein): the heart rate did not recover to baseline
inhibition at 10 µM (Dopamine transporter): 44.6%
